Biological target: T1, recombinant human 17β-hydroxysteroid dehydrogenase type 1 (Homo sapiens, UniProt P14061)
T1 construct: made in house; host or cells: Sf9 insect cells (baculovirus, Bac to Bac Expression System)
T1 sequence (P14061 1-328): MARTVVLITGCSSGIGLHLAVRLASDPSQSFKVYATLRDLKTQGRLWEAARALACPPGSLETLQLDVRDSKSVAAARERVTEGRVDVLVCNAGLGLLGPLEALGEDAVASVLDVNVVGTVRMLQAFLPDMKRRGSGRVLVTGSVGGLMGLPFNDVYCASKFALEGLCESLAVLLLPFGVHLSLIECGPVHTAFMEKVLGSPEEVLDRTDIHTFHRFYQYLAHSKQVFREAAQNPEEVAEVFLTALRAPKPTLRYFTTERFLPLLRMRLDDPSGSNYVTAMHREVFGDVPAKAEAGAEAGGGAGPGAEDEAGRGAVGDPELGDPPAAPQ
Test: Inhibition of recombinant human 17β-hydroxysteroid dehydrogenase type 1 (3H-estrone to estradiol conversion, HPLC)
Type: biochemical
Settings: read-out: Inhibition of rec. 17β-HSD1 (% inhibition); for inhibition at 0.1 µM: inhibitor concentration 100 nM; for inhibition at 1 µM: 0.5 h, inhibitor concentration 1 μm
Description: 17β-HSD1 purification: Recombinant baculovirus was generated by the “Bac to Bac Expression System” (Invitrogen). Recombinant bacmid was transfected to Sf9 insect cells using “Cellfectin Reagent” (Invitrogen). 60 h later cells were harvested; the microsomal fraction was isolated as described by Puranen et al. (1994). Aliquots were stored frozen until determination of enzymatic activity.
Assay—Inhibition of recombinant human 17β-hydroxysteroid dehydrogenase type 1: Recombinant protein (0.1 μg/ml) was incubated in 20 mM KH2PO4 pH 7.4 with 30 nM 3H-estrone and 1 mM NADPH for 30 min at RT, in the presence of potential inhibitors at concentrations of 1 μM or 0.1 μM. Inhibitor stock solutions were prepared in DMSO. Final concentration of DMSO was adjusted to 1% in all samples. The enzyme reaction was stopped by addition of 10% trichloroacetic acid (final concentration). Samples were centrifuged in a microtiter plate at 4000 rpm for 10 min. Supernatants were applied to reverse phase HPLC on a Waters Symmetry C18 column, equipped with a Waters Sentry Guard column. Isocratic HPLC runs were performed at RT at a flow rate of 1 ml/min of acetonitrile:water 48:52 as running solvent. Radioactivity was monitored in the eluate by a Packard Flow Scintillation Analyzer. Total radioactivity for estrone and estradiol were determined in each sample and percent conversion of estrone to estradiol was calculated according to the following formula:
Percent inhibition was calculated as follows: % inhibition=100−% conversion

Q: How did the inhibition at 0.1 µM turn out when `C[C@]12CC[C@@H]3c4ccc(OCc5ccccc5)cc4CC[C@H]3[C@@H]1[C@H](C/C=C/C(=O)N1CCOCC1)c1cnoc12` [161′] was run?
A: 21%

Q: How did the inhibition at 0.1 µM turn out when `CCCc1cc2c(cc1O)CC[C@H]1[C@@H]3[C@H](CCCC(=O)NCc4ccc5c(c4)OCO5)CC(=O)[C@@]3(C)CC[C@H]21` [Compound 30] was run?
A: 39.8%

Q: For `CCCc1cc2c(cc1O)CC[C@H]1[C@@H]3[C@H](CCCC(=O)NCc4cccnc4)CC(=O)[C@@]3(C)CC[C@H]21` [Compound 32], which inhibition at 0.1 µM is on record?
A: 50%

Q: With `CCCc1cc2c(cc1O)CC[C@H]1[C@@H]3[C@H](CCCC(=O)NCCc4c[nH]c5c(C)cccc45)CC(=O)[C@@]3(C)CC[C@H]21` [Compound 34] as the compound, how does the inhibition at 0.1 µM read?
A: 68.8%

Q: How did the inhibition at 0.1 µM turn out when `CCCc1cc2c(cc1O)CC[C@H]1[C@@H]3[C@H](CCCC(=O)N4CCCCC4)CC(=O)[C@@]3(C)CC[C@H]21` [Compound 36] was run?
A: 56.9%

Q: `CCCc1cc2c(cc1O)CC[C@H]1[C@@H]3[C@H](CCCC(=O)N(C)Cc4ccccc4)CC(=O)[C@@]3(C)CC[C@H]21` [Compound 37] was tested. Which inhibition at 0.1 µM did it give?
A: 64%

Q: Which inhibition at 0.1 µM does the source give for `CCCc1cc2c(cc1O)CC[C@H]1[C@@H]3[C@H](CCCC(=O)N(C)CCc4ccc(OC)c(OC)c4)CC(=O)[C@@]3(C)CC[C@H]21` [Compound 38] here?
A: 51%

Q: With `CCCc1cc2c(cc1O)CC[C@H]1[C@@H]3[C@H](CCCC(=O)Nc4ccc5cn[nH]c5c4)CC(=O)[C@@]3(C)CC[C@H]21` [Compound 40] as the compound, how does the inhibition at 0.1 µM read?
A: 72%

Q: Which inhibition at 0.1 µM does the source give for `CCCc1cc2c(cc1O)CC[C@H]1[C@@H]3[C@H](CCCC(=O)NCCOC)CC(=O)[C@@]3(C)CC[C@H]21` [Compound 41] here?
A: 25.9%

Q: How did the inhibition at 0.1 µM turn out when `CCCc1cc2c(cc1O)CC[C@H]1[C@@H]3[C@H](CCCC(=O)NCc4ccc(F)cc4F)CC(=O)[C@@]3(C)CC[C@H]21` [Compound 42] was run?
A: 53.3%

Q: How did the inhibition at 0.1 µM turn out when `CCOc1cc2c(cc1O)CC[C@H]1[C@@H]3[C@@H](CCCC(=O)NC4CCCCC4)CC(=O)[C@@]3(C)CC[C@H]21` [Compound 44] was run?
A: 55.5%

Q: `CCOc1cc2c(cc1O)CC[C@H]1[C@@H]3[C@@H](CCCC(=O)NCc4ccc5c(c4)OCO5)CC(=O)[C@@]3(C)CC[C@H]21` [Compound 45] was tested. Which inhibition at 0.1 µM did it give?
A: 54%

Q: For `CCOc1cc2c(cc1O)CC[C@H]1[C@@H]3[C@@H](CCCC(=O)NCCc4c[nH]c5c(C)cccc45)CC(=O)[C@@]3(C)CC[C@H]21` [Compound 52], which inhibition at 1 µM is on record?
A: 72.2%

Q: And the inhibition at 0.1 µM?
A: 50%

Q: What does the source list for `CCOc1cc2c(cc1O)CC[C@H]1[C@@H]3[C@@H](CCCC(=O)N4CCCCC4)CC(=O)[C@@]3(C)CC[C@H]21` [Compound 55]?
A: inhibition at 1 µM: 71.9%; inhibition at 0.1 µM: 42.6%

Q: For `CCOc1cc2c(cc1O)CC[C@H]1[C@@H]3[C@@H](CCCC(=O)Nc4ccc5cn[nH]c5c4)CC(=O)[C@@]3(C)CC[C@H]21` [Compound 59], which inhibition at 1 µM is on record?
A: 69.7%

Q: And the inhibition at 0.1 µM?
A: 56.1%

Q: With `COc1cc2c(cc1O)CC[C@H]1[C@@H]3[C@@H](CCCC(=O)NC4CCCCC4)CC(=O)[C@@]3(C)CC[C@H]21` [Compound 67] as the compound, how does the inhibition at 1 µM read?
A: 73.2%

Q: What about the inhibition at 0.1 µM of the same compound?
A: 42.5%

Q: `COc1cc2c(cc1O)CC[C@H]1[C@@H]3[C@@H](CCCC(=O)NCc4ccccc4)CC(=O)[C@@]3(C)CC[C@H]21` [Compound 71] was tested. Which inhibition at 1 µM did it give?
A: 70.6%

Q: And the inhibition at 0.1 µM?
A: 45.8%

Q: What does the source list for `COc1cc2c(cc1O)CC[C@H]1[C@@H]3[C@@H](CCCC(=O)N4CCCCC4)CC(=O)[C@H]3CC[C@H]21` [Compound 78]?
A: inhibition at 1 µM: 72%; inhibition at 0.1 µM: 40.6%

Q: How did the inhibition at 1 µM turn out when `COc1cc2c(cc1O)CC[C@H]1[C@@H]3[C@@H](CCCC(=O)Nc4ccc5cn[nH]c5c4)CC(=O)[C@@]3(C)CC[C@H]21` [Compound 83] was run?
A: 71.6%

Q: What about the inhibition at 0.1 µM of the same compound?
A: 53.9%

Q: Which results are given for `C[C@]12CC[C@@H]3c4ccc(O)cc4CC[C@H]3[C@@H]1[C@@H](CCCC(=O)NC1CCCCC1)CC2(F)F` [Compound 102]?
A: inhibition at 1 µM: 70.6%; inhibition at 0.1 µM: 41.6%

Q: Which inhibition at 1 µM does the source give for `C[C@]12CC[C@@H]3c4ccc(O)cc4CC[C@H]3[C@@H]1[C@@H](CCCC(=O)NCc1ccccc1)CC2(F)F` [Compound 106] here?
A: 68%

Q: And the inhibition at 0.1 µM?
A: 36.7%

Q: Which inhibition at 1 µM does the source give for `C[C@]12CC[C@@H]3c4ccc(O)cc4CC[C@H]3[C@@H]1[C@@H](CCCC(=O)NCc1ccc(O)c(O)c1)CC2(F)F` [Compound 109] here?
A: 70.7%

Q: And the inhibition at 0.1 µM?
A: 35.1%

Q: What does the source list for `Cc1cccc2c(CCNC(=O)CCC[C@H]3CC(F)(F)[C@@]4(C)CC[C@@H]5c6ccc(O)cc6CC[C@H]5[C@H]34)c[nH]c12` [Compound 111]?
A: inhibition at 1 µM: 68.3%; inhibition at 0.1 µM: 50.6%

Q: Which inhibition at 1 µM does the source give for `C[C@]12CC[C@@H]3c4ccc(O)cc4CC[C@H]3[C@@H]1[C@@H](CCCC(=O)N1CCCCC1)CC2(F)F` [Compound 113] here?
A: 76.9%

Q: And the inhibition at 0.1 µM?
A: 47.2%

Q: Which inhibition at 0.1 µM does the source give for `COc1ccc(CCN(C)C(=O)CCC[C@H]2CC(F)(F)[C@@]3(C)CC[C@@H]4c5ccc(O)cc5CC[C@H]4[C@H]23)cc1OC` [Compound 116] here?
A: 49.3%

Q: For `C[C@]12CC[C@@H]3c4ccc(O)cc4CC[C@H]3[C@@H]1[C@H](CCC(=O)NC1CC1)CC2(F)F` [Compound 120], which inhibition at 0.1 µM is on record?
A: 37.3%

Q: With `C[C@]12CC[C@@H]3c4ccc(O)cc4CC[C@H]3[C@@H]1[C@H](CCC(=O)NC1CCCCC1)CC2(F)F` [Compound 121] as the compound, how does the inhibition at 0.1 µM read?
A: 63.6%

Q: `C[C@]12CC[C@@H]3c4ccc(O)cc4CC[C@H]3[C@@H]1[C@H](CCC(=O)NCc1ccc3c(c1)OCO3)CC2(F)F` [Compound 122] was tested. Which inhibition at 0.1 µM did it give?
A: 34%

Q: `C[C@]12CC[C@@H]3c4ccc(O)cc4CC[C@H]3[C@@H]1[C@H](CCC(=O)NCc1ccccc1)CC2(F)F` [Compound 125] was tested. Which inhibition at 0.1 µM did it give?
A: 29.2%

Q: For `C[C@]12CC[C@@H]3c4ccc(O)cc4CC[C@H]3[C@@H]1[C@H](CCC(=O)NCc1ccc(O)c(O)c1)CC2(F)F` [Compound 127], which inhibition at 0.1 µM is on record?
A: 21.1%

Q: With `COc1cc(CNC(=O)CC[C@@H]2CC(F)(F)[C@@]3(C)CC[C@@H]4c5ccc(O)cc5CC[C@H]4[C@H]23)cc(OC)c1` [Compound 128] as the compound, how does the inhibition at 0.1 µM read?
A: 21.2%

Q: Which inhibition at 0.1 µM does the source give for `Cc1cccc2c(CCNC(=O)CC[C@@H]3CC(F)(F)[C@@]4(C)CC[C@@H]5c6ccc(O)cc6CC[C@H]5[C@H]34)c[nH]c12` [Compound 129] here?
A: 33.1%

Q: For `C[C@]12CC[C@@H]3c4ccc(O)cc4CC[C@H]3[C@@H]1[C@H](CCC(=O)N1CCCCC1)CC2(F)F` [Compound 131], which inhibition at 0.1 µM is on record?
A: 19.8%

Q: `CCN(CC)C(=O)CC[C@@H]1CC(F)(F)[C@@]2(C)CC[C@@H]3c4ccc(O)cc4CC[C@H]3[C@H]12` [Compound 133] was tested. Which inhibition at 0.1 µM did it give?
A: 71.4%

Q: How did the inhibition at 0.1 µM turn out when `COc1ccc(CCN(C)C(=O)CC[C@@H]2CC(F)(F)[C@@]3(C)CC[C@@H]4c5ccc(O)cc5CC[C@H]4[C@H]23)cc1OC` [Compound 134] was run?
A: 50.5%

Q: With `CCCc1cc2c(cc1O)CC[C@H]1[C@@H]3[C@H](CCCC(=O)NCc4ccccc4)CC(=O)[C@@]3(C)CC[C@H]21` [Example 2, N-Benzyl-4-(3-hydroxy-17-oxo-2-propyl-estra-1,3,5(10)-trien-15β-yl)-butyramide] as the compound, how does the inhibition at 0.1 µM read?
A: 54.8%

Q: How did the inhibition at 0.1 µM turn out when `COCCc1cc2c(cc1O)CC[C@H]1[C@@H]3[C@H](CCCC(=O)NCc4ccccc4)CC(=O)[C@@]3(C)CC[C@H]21` [Example 3, N-Benzyl-4-(3-hydroxy-2-(2-methoxy-ethyl)-17-oxo-estra-1,3,5(10)-trien-15β-yl)-butyramide] was run?
A: 19.6%

Q: How did the inhibition at 0.1 µM turn out when `CCCc1cc2c(cc1O)CC[C@H]1[C@@H]3[C@H](CCCC(=O)N4CCOCC4)CC(=O)[C@@]3(C)CC[C@H]21` [Example 6, 3-Hydroxy-15β-(4-morpholin-4-yl-4-oxo-butyl)-2-propyl-estra-1,3,5(10)-trien-17-one] was run?
A: 37.9%

Q: How did the inhibition at 0.1 µM turn out when `C[C@]12CC[C@@H]3c4ccc(O)cc4CC[C@H]3[C@@H]1[C@H](CCCC(=O)N1CCOCC1)CC2(F)F` [Example 90] was run?
A: 63.5%

Q: For `C[C@]12CC[C@@H]3c4ccc(O)cc4CC[C@H]3[C@@H]1[C@@H](CCCC(=O)N1CCOCC1)CC2(F)F` [Example 91, 4-(17,17-Difluoro-3-hydroxy-estra-1,3,5(10)-trien-15α-yl)-1-morpholin-4-yl-butan-1-one], which inhibition at 0.1 µM is on record?
A: 32%

From US8030298B2, “17β-HSD1 and STS inhibitors” (Abbott Products GmbH, priority 2005, dated 2011)
